Source: ChEMBL document CHEMBL3046429, “Synthesis, molecular modeling study, preliminary antibacterial, and antitumor evaluation of N-substituted naphthalimides and their structural analogues” (2013)
Values after ≈ are worked out from the molar mass of the structure shown.

What was measured:
Assay type in all cases: functional
Staphylococcus aureus = assay: Antibacterial activity against Staphylococcus aureus assessed as growth inhibition after 24 hr by two fold serial dilution method; details: for MIC: Staphylococcus aureus, 24 h
Escherichia coli = assay: Antibacterial activity against Escherichia coli assessed as growth inhibition after 24 hr by two-fold serial dilution method; details: for MIC: Escherichia coli, 24 h
Pseudomonas aeruginosa = assay: Antibacterial activity against Pseudomonas aeruginosa assessed as growth inhibition after 24 hr by two-fold serial dilution method
Bacillus subtilis = assay: Antibacterial activity against Bacillus subtilis assessed as growth inhibition after 24 hr by two fold serial dilution method
MCF7 = assay: Growth inhibition of Homo sapiens (human) MCF7 cells at 10 uM after 48 hr by coulter counter analysis; details: MCF7, 48 h, read-out: GI
SN12C = assay: Growth inhibition of Homo sapiens (human) SN12C cells at 10 uM after 48 hr by coulter counter analysis; details: read-out: GI
HOP-92 = assay: Growth inhibition of Homo sapiens (human) HOP92 cells at 10 uM after 48 hr by coulter counter analysis; details: HOP-92, 48 h, read-out: GI
UO-31 = assay: Growth inhibition of Homo sapiens (human) UO31 cells at 10 uM after 48 hr by coulter counter analysis; details: UO-31, 48 h, read-out: GI
SNB-75 = assay: Growth inhibition of Homo sapiens (human) SNB75 cells at 10 uM after 48 hr by coulter counter analysis; details: SNB-75, 48 h, read-out: GI
NCI-H522 = assay: Growth inhibition of Homo sapiens (human) NCI-H522 cells at 10 uM after 48 hr by coulter counter analysis; details: NCI-H522, 48 h, read-out: GI

SMILES | -logMIC (Staphylococcus aureus) | MIC (Staphylococcus aureus) [µg/mL] | -logMIC (Escherichia coli) | MIC (Escherichia coli) [µg/mL] | MIC (Pseudomonas aeruginosa) [µg/mL] | MIC (Bacillus subtilis) [µg/mL] | inhibition of growth at 10 µM (MCF7) [%] | inhibition of growth at 10 µM (SN12C) [%] | inhibition of growth at 10 µM (HOP-92) [%] | inhibition of growth at 10 µM (UO-31) [%] | inhibition of growth at 10 µM (SNB-75) [%] | inhibition of growth at 10 µM (NCI-H522) [%]
COc1cc(OC)c(N2C(=O)c3nccnc3C2=O)c(OC)c1 | 4.56 | 8.7 (≈ 27.6 µM) | 4.54 | 9 (≈ 28.5 µM) | > 100 | 9 (≈ 28.5 µM) | – | – | – | – | – | –
O=c1c2ccccc2c2ccccc2c(=O)n1CCN1CCOCC1 | 3.52 | > 100 | 3.52 | > 100 | > 100 | > 100 | – | – | – | – | – | –
O=c1c2ccccc2c2ccccc2c(=O)n1CCc1ccccn1 | 3.53 | > 100 | 3.53 | > 100 | > 100 | > 100 | 28.3 | 8.53 | 13.5 | 32.5 | 13.1 | 11.4
O=C1c2nccnc2C(=O)N1CCN1CCOCC1 | 3.42 | > 100 | 3.42 | > 100 | > 100 | > 100 | – | – | – | – | – | –
O=c1c2ccccc2c2ccccc2c(=O)n1-c1ccc([N+](=O)[O-])cc1[N+](=O)[O-] | 5.25 | 2.2 (≈ 5.65 µM) | 4.99 | 4 (≈ 10.3 µM) | > 100 | 2.3 (≈ 5.91 µM) | -0.39 | 1.4 | 26.4 | 18.1 | 28.6 | 5.5
O=c1c2ccccc2c2ccccc2c(=O)n1-c1c(Cl)cc(Cl)cc1Cl | 4.33 | 19 (≈ 47.2 µM) | 5.22 | 2.4 (≈ 5.96 µM) | 10 (≈ 24.8 µM) | 18.5 (≈ 45.9 µM) | -1.42 | -1.37 | 33.6 | 10.8 | 45.6 | 4.08
COc1cc(N2C(=O)c3cccc4cccc(c34)C2=O)cc(OC)c1OC | 5.26 | 2 (≈ 5.5 µM) | 5.16 | 2.5 (≈ 6.88 µM) | > 100 | 2.2 (≈ 6.05 µM) | – | – | – | – | – | –
O=C(O)c1ccc(N2C(=O)c3cccc4cccc(c34)C2=O)cc1 | 5.3 | 1.6 (≈ 5.04 µM) | 4.91 | 3.9 (≈ 12.3 µM) | > 100 | 2 (≈ 6.3 µM) | – | – | – | – | – | –
O=C1c2nccnc2C(=O)N1CCc1ccccn1 | 3.41 | > 100 | 3.41 | > 100 | > 100 | > 100 | 2.87 | – | -3.5 | 20.9 | 11.8 | 3.84
O=C1c2nccnc2C(=O)N1c1ccc([N+](=O)[O-])cc1[N+](=O)[O-] | 4.57 | 8.4 (≈ 26.6 µM) | 4.46 | 10.9 (≈ 34.6 µM) | > 100 | 8 (≈ 25.4 µM) | 3.56 | 6.83 | -28.1 | 15.3 | 11.4 | 3.89
Cc1cc(Cl)c(N2C(=O)c3cccc4cccc(c34)C2=O)c(Cl)c1 | 4.29 | 18.2 (≈ 51.1 µM) | 5.21 | 2.2 (≈ 6.18 µM) | 10 (≈ 28.1 µM) | 20 (≈ 56.1 µM) | -1.03 | 3.72 | -15.5 | 26.8 | 6.64 | 5.32
CC1(C)S[C@@H]2[C@H](NC(=O)[C@H](N)c3ccccc3)C(=O)N2[C@H]1C(=O)O [AMPICILLIN] | – | 2.2 (≈ 6.3 µM) | – | 2.2 (≈ 6.3 µM) | 10 (≈ 28.6 µM) | 2.2 (≈ 6.3 µM) | – | – | – | – | – | –
COc1cc(-n2c(=O)c3ccccc3c3ccccc3c2=O)cc(OC)c1OC | 5.19 | 2.5 (≈ 6.42 µM) | 5.19 | 2.5 (≈ 6.42 µM) | > 100 | 2.5 (≈ 6.42 µM) | – | – | – | – | – | –
O=C1c2cccc3cccc(c23)C(=O)N1CCc1ccccn1 | 3.48 | > 100 | 3.48 | > 100 | > 100 | > 100 | – | – | – | – | – | –
O=C1c2cccc3cccc(c23)C(=O)N1c1ccc([N+](=O)[O-])cc1[N+](=O)[O-] | 5.31 | 1.8 (≈ 4.95 µM) | 4.96 | 4 (≈ 11 µM) | > 100 | 2.2 (≈ 6.06 µM) | – | – | – | – | – | –
O=C1c2cccc3cccc(c23)C(=O)N1c1ccc([N+](=O)[O-])cc1 | 5.04 | 2.9 (≈ 9.11 µM) | 4.9 | 4 (≈ 12.6 µM) | > 100 | 2.9 (≈ 9.11 µM) | – | – | – | – | – | –
COc1cc(N2C(=O)c3nccnc3C2=O)cc(OC)c1OC | 4.56 | 8.7 (≈ 27.6 µM) | 4.54 | 9 (≈ 28.5 µM) | > 100 | 9 (≈ 28.5 µM) | 4.31 | 5.86 | 10.2 | 12.5 | -2.75 | 4.82
O=C(O)c1ccc(-n2c(=O)c3ccccc3c3ccccc3c2=O)cc1 | 5.19 | 2.2 (≈ 6.41 µM) | 4.91 | 4.2 (≈ 12.2 µM) | > 100 | 2 (≈ 5.83 µM) | 10.1 | 6.3 | 10.1 | 15.4 | 11 | 7.66
Cc1cc(Cl)c(-n2c(=O)c3ccccc3c3ccccc3c2=O)c(Cl)c1 | 4.29 | 19.5 (≈ 51 µM) | 5.17 | 2.6 (≈ 6.8 µM) | 10 (≈ 26.2 µM) | 19.2 (≈ 50.2 µM) | 1.96 | 14.8 | 1.58 | 34.7 | 10.1 | 1.31
COc1cc(OC)c(-n2c(=O)c3ccccc3c3ccccc3c2=O)c(OC)c1 | 5.19 | 2.5 (≈ 6.42 µM) | 5.19 | 2.5 (≈ 6.42 µM) | > 100 | 2.5 (≈ 6.42 µM) | – | – | – | – | – | –
O=C1c2nccnc2C(=O)N1c1ccc([N+](=O)[O-])cc1 | 4.48 | 8.9 (≈ 32.9 µM) | 4.41 | 10.5 (≈ 38.9 µM) | > 100 | 8.5 (≈ 31.5 µM) | – | – | – | – | – | –
Cc1cc(Cl)c(N2C(=O)c3nccnc3C2=O)c(Cl)c1 | 4.19 | 20 (≈ 64.9 µM) | 4.65 | 6.9 (≈ 22.4 µM) | 20 (≈ 64.9 µM) | 20 (≈ 64.9 µM) | – | – | – | – | – | –
COc1cc(OC)c(N2C(=O)c3cccc4cccc(c34)C2=O)c(OC)c1 | 5.26 | 2 (≈ 5.5 µM) | 5.16 | 2.5 (≈ 6.88 µM) | > 100 | 2.2 (≈ 6.05 µM) | 6.42 | 19.3 | 30.2 | 21 | 13.2 | 13.6
O=C1c2cccc3cccc(c23)C(=O)N1c1c(Cl)cc(Cl)cc1Cl | 4.32 | 18 (≈ 47.8 µM) | 5.27 | 2 (≈ 5.31 µM) | 10 (≈ 26.6 µM) | 20 (≈ 53.1 µM) | 3.55 | 6.09 | – | 20.9 | 39.1 | 4.37
O=C(O)c1ccc(N2C(=O)c3nccnc3C2=O)cc1 | 4.5 | 8.5 (≈ 31.6 µM) | 4.39 | 10.9 (≈ 40.5 µM) | > 100 | 8 (≈ 29.7 µM) | – | – | – | – | – | –
O=C1c2cccc3cccc(c23)C(=O)N1CCN1CCOCC1 | 3.49 | > 100 | 3.49 | > 100 | > 100 | > 100 | – | – | – | – | – | –
